Assay results reported in patent publication US20220315558A1, “POLYMORPHS OF 1-(2-((((TRANS)-3-FLUORO-1-(3-FLUOROPYRIDIN-2-YL)CYCLOBUTYL)METHYL)AMINO)PYRIMIDIN-5-YL)-1H-PYRROLE-3-CARBOXAMIDE” (Cytokinetics, Inc., priority 2019, published 2022).

Tests used:
[1] = Gravimetric Vapour Sorption (GVS) moisture sorption isotherm; type: physicochemical; conditions: over 0-90% RH range, 25° C.
Experimental: GVS data were collected using a SMS DVS Intrinsic moisture sorption analyser, controlled by DVS Intrinsic Control software v1.0.0.30. The sample temperature was maintained at 25° C. by the instrument controls. The humidity was controlled by mixing streams of dry and wet nitrogen, with a total flow rate of 200 ml/min The relative humidity was measured by a calibrated Rotronic probe (dynamic range of 1.0-100% RH), located near the sample. The weight change, (mass relaxation) of the sample as a function of % RH was constantly monitored by the microbalance (accuracy ±0.005 mg).
Typically 5-20 mg of sample was placed in a tared mesh stainless steel basket under ambient conditions. The sample was loaded and unloaded at 40% RH and 25° C. (typical room conditions). A moisture sorption isotherm was performed as outlined below (2 scans giving 1 complete cycle). The standard isotherm was performed at 25° C. at 10% RH intervals over a 0-90% RH range. Data analysis was undertaken in Microsoft Excel using DVS Analysis Suite v6.0.

[2] = Competitive slurry experiments between Form I and Form V; type: physicochemical; conditions: XRPD
Experimental: For competitive slurry experiments, a mixture of Form I (˜10 mg) and Form V (˜10 mg) were suspended in 20 volumes of ethanol or methanol. Parallel maturation experiments were set up at a constant temperature, in the range of 4° C. to 60° C. for 9-12 days, the resulting solids (rapidly isolated by solvent decantation) were analyzed by XRPD. A mechanical mixture of Form I and Form V in equivalent weight was also analyzed by XRPD for reference. For the control experiments, slurries of Form I or Form V were subjected to the same conditions as in the competitive slurry experiments.
In an attempt to determine a transition temperature for the polymorph pair, a further four competitive slurry experiments were performed at a higher temperature range of 65-75° C. Using sealed vials, Form I (˜10 mg) and Form V (˜10 mg) were suspended in 20 volumes of ethanol or methanol and maturation continued for 2 days.

## NC(=O)c1ccn(-c2cnc(NC[C@]3(c4ncccc4F)C[C@H](F)C3)nc2)c1 [Form V, 1-(2-((((trans)-3-fluoro-1-(3-fluoropyridin-2-yl)cyclobutyl)methyl)amino)pyrimidin-5-yl)-1H-pyrrole-3-carboxamide]
[1]
  moisture uptake as determined by GVS: less than 0.05%
[2]; ethanol, 4° C. to 60° C., 9-12 days
  relative stability versus Form I (competitive slurry): more stable
[2]; ethanol, 65-75° C., 2 days, sealed vials
  relative stability versus Form I (competitive slurry): more stable form
[2]; methanol, 4° C. to 60° C., 9-12 days
  relative stability versus Form I (competitive slurry): more stable
[2]; methanol, 65° C., 2 days, sealed vials
  solid form obtained from Form I/Form V competitive slurry: mixture of both forms
